Measurements taken from EP4678172A1, “USE OF NAPHTHYLAMIDE COMPOUND IN TREATMENT OF MENINGIOMA” (Shanghai Runshi Medical Technology Co., Ltd, priority 2023, dated 2024).

Tests used:
[1] = tested on: Human meningioma cell line IOMM-Lee cells; assay: Trypan blue viable cell counting, cell viability; type: cell-based; details: 24 h
Description: Human meningioma cell line IOMM-Lee cells (purchased from ATCC) were cultured using a DMED culture medium containing 10% FBS and 100 U/mL penicillin-streptomycin double antibiotics in an incubator with 5% CO2 at 37 °C. The cells in the logarithmic growth phase were seeded uniformly in a 6-well plate at a density of 2 × 10^5 cells/mL and cultured for 24 h, and then the cells were grouped into a blank control group and compound (I) treatment groups at different concentrations. The compound (I) treatment concentrations were 0.4 µM, 0.8 µM, 1.6 µM, 2 µM, 10 µM, 20 µM, 60 µM, and 120 µM, and 3-4 replicate wells were set for each group. After cells in the groups were separately cultured for 24 h, the cells were digested with 0.25% trypsin, and 50 µL of each cell suspension was mixed with 50 µL of 0.4% trypan blue solution to a final trypan blue concentration of 0.2%. Subsequently, 10 µL of the uniform cell suspension was added to a counting plate and counted under a microscope for the total cell count and dead cell count. Statistical analysis was performed.

[2] = tested on: meningioma cells IOMM-Lee; assay: EdU cell proliferation assay; type: cell-based, human; details: 1 µM, 24 h, versus blank control group
Description: The IOMM-Lee single cell suspension in the logarithmic growth phase obtained in Example 1 was seeded in a 6-well plate at a cell density of 3 × 10^5 cells/mL, cultured overnight, and grouped into a blank control group and a compound (I) treatment group (concentration: 1 µM; treatment duration: 24 h). Subsequently, each group was incubated with EdU (10 µM) for 2 h; the culture medium was discarded; and the cells were washed with PBS (in this experiment, PBS was used in the washing process). The cells were fixed with 4% paraformaldehyde; the stationary liquid was discarded; and the cells were washed. After that, the cells were permeabilized with 0.3% Triton X100; the permeabilization liquid was discarded; and the cells were washed. Then, a prepared click reaction solution (commercially available C0081 BeyoClick™ EdU Cell Proliferation Kit with Alexa Fluor 647) was added; the mixture was incubated in the dark at room temperature for 30 min; the reaction solution was discarded; and the cells were washed. The cell nuclei were stained with Hoechst 33342 fluorescent dye by adding 1× Hoechst 33342 solution at 1 mL/well, followed by incubated in the dark at room temperature for 10 min; 1× Hoechst 33342 solution was removed by pipetting; and the cells were washed 3 times. Subsequently, a fluorescence assay was performed, and the results were recorded.

CH157-MN [3] = assay: Cell scratch assay (migration); type: cell-based, human; details: CH157-MN, 2, 5, 10 µM, 24 h, versus blank control; dose-dependent
Description: (§1) • (1) The IOMM-Lee single cell suspension in the logarithmic growth phase was seeded in a 6-well plate at a cell density of 6 × 10^5 cells/mL and cultured for 24 h to ensure the full covering of the entire cell culture dish by the growing cells. A cell scratch was made by a 10 µL sterile pipette tip perpendicular to the culture dish; the original culture solution was discarded; and the detached cells were pipetted by washing with PBS 3 times. The cells were cultured using a serum-free DMEM culture medium and grouped into a blank control group and compound (I) treatment groups at different concentrations, where the compound (I) treatment groups had concentrations of 0.5 µM, 1 µM, and 2 µM, respectively. The cells were observed under the bright field of a microscope and recorded at 0 h and 24 h. • (2) With reference to the experimental method (1), the concentrations in the compound (I) treatment groups were replaced by 2 µM, 5 µM, and 10 µM, respectively, and the used human meningioma cell line was IOMM-Lee or CH157-MN.

IOMM-Lee [4] = assay: Cell scratch assay (migration); type: cell-based, human; details: IOMM-Lee, 0.5, 1, 2 µM and 2, 5, 10 µM, 24 h, versus blank control; dose-dependent
Description: as §1

CH157-MN [5] = assay: Transwell chamber assay (invasion); type: cell-based, human; details: CH157-MN, 2, 5, 10 µM, 24 h; with increasing concentration
Description: (§2) • (1) The upper chamber of the pre-cooled Transwell chamber was coated with 50 µL of matrigel, and the matrigel-coated chamber was incubated in an incubator at 37 °C for 6-8 h to allow the matrigel to polymerize into a gel. After 100 µL of a serum-free culture medium was added to each well, the chamber was placed in an incubator for 1 h to allow the basement membrane hydration. The liquid in the upper chamber was removed, and the IOMM-Lee single cell suspension in the logarithmic growth phase was adjusted to a cell density of 2 × 10^5 cells/mL using the serum-free DMEM culture medium; 200 µL of the cell suspension was added to the Transwell chamber; and the culture liquid in the lower chamber was a DMEM culture medium with 20% FBS. Compound (I) samples at different concentrations (0 µM, 0.5 µM, 1 µM, and 2 µM, respectively) were added to the chamber. The culture was finished 24 h later; and the cells in the chamber were removed with a cotton swab, fixed with 4% paraformaldehyde for 20 min, washed with PBS 3 times, stained with crystal violet for 30 min, and observed under a microscope. The invading cells were counted. • (2) With reference to the experimental method (1), the concentrations in the compound (I) treatment groups were replaced by 2 µM, 5 µM, and 10 µM, respectively, and the used human meningioma cell line was IOMM-Lee or CH157-MN.

IOMM-Lee [6] = assay: Transwell chamber assay (invasion); type: cell-based, human; details: IOMM-Lee, 0.5, 1, 2 µM and 2, 5, 10 µM, 24 h; with increasing concentration
Description: as §2

CH157-MN [7] = assay: Apoptosis by annexin V-FITC/PI flow cytometry; type: cell-based, human; details: CH157-MN, 2, 5, 10 µM, 24 h, versus blank control
Description: (§3) • (1) The IOMM-Lee single cell suspension in the logarithmic growth phase was seeded in a 6-well plate at a cell density of 5 × 10^5 cells/mL, cultured overnight, and grouped into a blank control group and compound (I) treatment groups at different concentrations, with concentrations of compound (I) being 1 µM, 5 µM, and 10 µM, respectively, and 3-4 replicate wells were set. After the addition of compound (I) at different concentrations for the treatment for 24 h, (1-10) × 10^5 cells were collected from the blank control group and each compound (I) treatment group, washed with PBS, and centrifuged. The cells were resuspended in 500 µL of 1× binding buffer. 5 µL of annexin V-FITC and 10 µL of PI were added to each tube. After gently and homogeneously mixing by vortex, the cells were incubated in the dark at room temperature for 5 min and then subjected to flow cytometry. • (2) With reference to the experimental method (1), the concentrations in the compound (I) treatment groups were replaced by 2 µM, 5 µM, and 10 µM, respectively, and the used human meningioma cell line was IOMM-Lee or CH157-MN.

IOMM-Lee [8] = assay: Apoptosis by annexin V-FITC/PI flow cytometry; type: cell-based, human; details: IOMM-Lee, 1, 5, 10 µM and 2, 5, 10 µM, 24 h, versus blank control
Description: as §3

patients with meningioma = assay: Phase I clinical trial, tumor assessment by RANO criteria for meningioma; type: in vivo, human; details: for C2 target lesion shrinkage / target lesion shrinkage: head MRI; for target lesion shrinkage: after 6 cycles
Description: Compound (I) is currently undergoing phase I clinical trials to evaluate the preliminary efficacy on patients with meningioma.
Drug: compound (I) oral solution, 10-25 mg/day, once daily.
If no serious adverse events occurred, subsequent treatment cycles (21 days for each cycle) of administration may begin until progressive disease (PD) or intolerable toxicity occurred.
The efficacy on tumors was evaluated according to the RANO Criteria for Meningioma (Huang, Raymond Y et al. Proposed response assessment and endpoints for meningioma clinical trials: report from the Response Assessment in Neuro-Oncology Working Group. Neuro-oncology. vol. 21, 1 (2019): 26-36. doi:10.1093/neuonc/noy137). Target lesions were selected from tumor lesions with enhancement according to the criteria and precisely measured. The tumor treatment efficacy on the target lesions was confirmed by comparing the changes in the measured values. […] In addition, the improvement and deterioration of clinical symptoms of patients and the change in steroid hormone doses for symptomatic treatment of neurological symptoms were also used as evaluation indexes in tumor assessment. A tumor assessment was performed at baseline prior to the first administration and then performed once every 6 weeks during the administration until progressive disease (PD) occurred or a new anti-tumor treatment started.

[9] = Animal long-term toxicity test, conversion to human maximum tolerated dose; type: in vivo; details: converted from animal long-term toxicity test, human body weight of 60 kg
Description: A specific dose and administration frequency can be determined by a skilled physician according to conventional skills allowing for factors such as the route of administration, the health condition of the patient, etc. In the first dose escalation study (phase I trial) in a human, the most sensitive animal species were selected to calculate the maximum recommended starting dose for clinical trials according to the pre-clinical toxicology study. The starting dose was calculated according to the calculation methods recommended by "Technical Guidelines for Non-Clinical Research on Anti-Cancer Drugs" and other guidelines. In some embodiments, in the phase 1 clinical trial of compound (I), in order to ensure the safety of subjects, in combination with the operability of clinical trials and formulation specification, the starting dose of compound (I) for the phase I clinical trial was designed to be 5 mg. Based on the results of an animal long-term toxicity test, the maximum tolerated dose for the human body is converted into 200 mg according to the human body weight of 60 kg. In the phase 1 clinical trial of compound (I), the safety, tolerance, and efficacy of the continuous administration regimen of a daily administration dose of 5 mg-200 mg were researched. […]

[10] = 34 meningioma patients, oral solution 10-25 mg/day
[11] = RANO criteria for meningioma, 34 meningioma patients, oral solution 10-25 mg/day
[12] = by Feb. 2, 2024, 32 patients completed the tumor assessment, oral solution 10-25 mg/day
[13] = by Jan. 16, 2023, 5 patients completed the tumor assessment, oral solution 10-25 mg/day
[14] = of 34 meningioma patients, oral solution 10-25 mg/day

Work on `Cc1cc(NC(=O)c2cccc3cc(-c4cccc5[nH]nc(N)c45)ccc23)ccc1F` [compound (I)] yielded a viability at 0.4 µM ([1]; compound (I) 0.4 µM) of 71.8 ± 4.06%, a viability at 0.8 µM ([1]; compound (I) 0.8 µM) of 56.8 ± 5.19% and a viability at 1.6 µM ([1]; compound (I) 1.6 µM) of 48.3 ± 10.5%. The viability at 2 µM ([1]; compound (I) 2 µM) was 45.3 ± 1.91%, the viability at 10 µM ([1]; compound (I) 10 µM) was 35 ± 3.93% and the viability at 20 µM ([1]; compound (I) 20 µM) was 22.6 ± 2.72%. For the same compound, the viability at 60 µM ([1]; compound (I) 60 µM) was 19.3 ± 0.52%, the viability at 80 µM ([1]; compound (I) 80 µM) was 6.33 ± 1.71% and the viability at 120 µM ([1]; compound (I) 120 µM) was 0%. For the same compound, the “EdU-labeled (proliferating) cells” value [2] was “significantly fewer than those in the blank control group”, the cell scratch healing (CH157-MN [3]) was “significantly weaker cell scratch healing than that of the blank control group” and the cell scratch healing (IOMM-Lee [4]) was “significantly weaker cell scratch healing than that of the blank control group”. The invasion rates (CH157-MN [5]) was “significantly decreased”, the invasion rates (IOMM-Lee [6]) was “significantly decreased” and the late apoptosis (CH157-MN [7]) was “significantly increased”. For the same compound, the “total cell apoptosis ratio” value (CH157-MN [7]; with increasing concentration) was “increased”, the late apoptosis (IOMM-Lee [8]) was “significantly increased” and the “total cell apoptosis ratio” value (IOMM-Lee [8]; with increasing concentration) was “increased”. For the same compound, the “adverse events associated with the administration (severity)” value (patients with meningioma; [10]) was “mostly mild and moderate”, the “adverse events with an incidence of greater than 20%” value (patients with meningioma; [10]) was “hypertension, decreased platelet count, increased blood lactate dehydrogenase, sinus bradycardia, proteinuria, increased aspartate aminotransferase, increased alanine aminotransferase, hypokalemia, hyperlipidemia, decreased neutrophil count, decreased leukocyte count, diarrhea, and anemia” and the disease control rate (patients with meningioma; [11]) was 82.4%. For the same compound, the objective remission rate (patients with meningioma; [11]) was 29.41%, the “C2 target lesion shrinkage” value (patients with meningioma; Typical case 1: anaplastic meningioma WHO grade III, oral solution 15 mg once daily, two cycles) was 56% and the “adverse events during the treatment” value (patients with meningioma; Typical case 1: oral solution 15 mg once daily) was “No adverse events”. For the same compound, the “clinical symptoms reported by subject” value (patients with meningioma; Typical case 1: oral solution 15 mg once daily, two cycles) was “significantly mitigated head-distending pain”, the “clinical symptoms of subject” value (patients with meningioma; Typical case 2: baseline blindness in both eyes, oral solution 15 mg once daily, after two cycles) was “vision recovery and self-care recovery” and the “C2 target lesion shrinkage” value (patients with meningioma; Typical case 2: meningioma (fibrous) WHO grade I, oral solution 15 mg once daily, two cycles) was 36%. For the same compound, the “main adverse event during the treatment” value (patients with meningioma; Typical case 2: oral solution 15 mg once daily, recovered after administration was suspended) was “mild or moderate hypertension”, the “C2 target lesion shrinkage” value (patients with meningioma; Typical case 3: malignant meningioma, oral solution 15 mg once daily) was 56% and the “main adverse event during the treatment” value (patients with meningioma; Typical case 3: oral solution 15 mg once daily, recovered after taking a hypotensor) was “mild or moderate hypertension”. The target lesion shrinkage (patients with meningioma; Typical case 4: atypical meningioma WHO grade II, oral solution 20 mg once daily) was 61.47%, the “main adverse events during the treatment” value (patients with meningioma; Typical case 4: oral solution 20 mg once daily, recovered after symptomatic treatment) was “mild proteinuria, decreased platelet count, decreased neutrophil count, decreased leucocyte count, and increased alanine aminotransferase” and the “main adverse events during the treatment” value (patients with meningioma; Typical case 5: oral solution 25 mg once daily, mitigated/recovered after symptomatic treatment) was “mild hypertension, decreased platelet count, decreased neutrophil count, and increased alanine aminotransferase”. For the same compound, the target lesion shrinkage (patients with meningioma; Typical case 5: papillary meningioma WHO grade III, oral solution 25 mg once daily) was 36.73%, the MR cases (patients with meningioma; [12]) was 6 and the PR cases (patients with meningioma; [12]) was 4. For the same compound, the MR case (patients with meningioma; [13]) was 1, the PR cases (patients with meningioma; [13]) was 2 and the “patients exhibited tumor shrinkage after administration” value (patients with meningioma; [14]) was 26 patients. For the same compound, the “patients exhibiting tumor shrinkage after administration, share of all patients” value (patients with meningioma; [14]) was 76.5% and the “maximum tolerated dose for the human body” value [9] was 200 mg.
